# Patent EP4772514A1, “MACROCYCLIC COMPOUNDS, PREPARATION METHOD THEREFOR, AND USE THEREOF” (Genfleet Therapeutics (Shanghai) Inc., priority 2023, dated 2025)
# Read-outs that look alike come from different tables or passages of the source.
# How the values were obtained:
# NCI-H441 cells = assay: 3D cell proliferation assay (CellTiter Glo-3D) in NCI-H441 cells; format: cell-based; settings: NCI-H441, human lung cancer cell strain, KRAS G12V mutation, 3D culture, 2% FBS, 5 days, read-out: H441 AP IC50
# From the text: MIA PaCa-2 cells were purchased from ATCC, Cat. No. CRL-1420; AsPC-1 cells were purchased from ATCC, Cat. No. CRL-1682; NCI-H441 cells were purchased from ATCC, Cat. No. HTB-174; NCI-H1975 cells were purchased from ATCC, Cat. No. CRL-5908; DMEM medium was purchased from Gibco, Cat. No. 11995-065; RPMI-1640 medium was purchased from Gibco, Cat. No. 11875-093; FBS was purchased from Gibco, Cat. No. 10099-141C; penicillin/streptomycin double-antibiotic solution (PS) was purchased from Gibco, Cat. No. 15140-122; Horse serum was purchased from Gibco, Cat. No. 16050130; trypsin (containing EDTA) was purchased from Gibco, Cat. No. 25200-072; DMSO was purchased from VWRAMRESCO, Cat. No. 0231-500ML; 384-well cell culture plates were purchased from Corning, Cat. No. 3830; white-bottomed, opaque 384-well assay plates were purchased from Corning, Cat. No. 3570; CellTiter Glo-3D kit was purchased from Promega, Cat. No. G9683; cell counter was purchased from CHEMOMETEC, model: NC-200; microplate reader was purchased from PerkinElmer, model: EnVision.
# MIA PaCa-2, a human pancreatic cancer cell strain endogenously containing a KRAS^G12Cmutation, was cultured in a complete medium containing DMEM + 10% FBS + 2.5% Horse serum + 1% PS. AsPC-1, a human pancreatic cancer cell strain endogenously containing a KRAS^G12D mutation, was cultured in a complete medium containing RPMI-1640 + 10% FBS + 1% PS. NCI-H441 cells, a human lung cancer cell strain endogenously containing a KRAS^G12V mutation, were cultured in a complete medium containing RPMI-1640 + 10% FBS + 1% PS. NCI-H1975, a KRAS wild-type human lung cancer cell strain whose cell proliferation […], was cultured in a complete medium containing RPMI-1640 + 10% FBS + 1% PS.
# The cells were digested with trypsin (containing EDTA), collected in their respective low-serum complete media containing 2% FBS (for MIA Paca-2 cell culture: DMEM + 2% FBS + 0.5% Horse serum + 1% PS), and counted. After the cell density was adjusted as required, MIA PaCa-2 cells (200 cells/well), AsPC-1 cells (800 cells/well), NCI-H441 cells (800 cells/well), or NCI-H1975 cells (400 cells/well) were seeded into a 384-well cell culture plate, with the volume of the medium in each well being 45 µL. The cell culture plate was incubated in an incubator at 37 °C with 5% CO2 overnight. A series of 3.16-fold gradient dilutions of a 1000× compound stock solution were prepared with DMSO, and then diluted 100-fold with the complete medium containing 2% FBS described above to give 10× compound stock solutions. On the day after cell seeding, 5 µL of the 10× compound stock solution was added to each cell culture well. As a result, the final concentration of the compound in the cell culture well became 1×, and the DMSO content in the well was 0.1%. In addition to the compound-treated wells described above, cell-containing DMSO control wells (with 5 µL of the complete medium containing 1% DMSO added to each well) and cell-free medium control wells (containing 50 µL of the complete medium with 2% FBS) were also set. The culture plate was incubated in an incubator at 37 °C with 5% CO2 for another 5 days, and then 30 µL of CellTiter-Glo working solution was added to each well. The mixture was well mixed, incubated for 30 min, left to stand at room temperature for 30 min, and then transferred to a white-bottomed, opaque 384-well assay plate at 40 µL/well. The chemiluminescence values (RLU) were measured using a microplate reader, and the cell proliferation inhibition rate for each well was calculated: IR(%) = (RLUDMSO - RLUcompound)/(RLUDMSO - RLUblank) × 100%, where RLUDMSO is the average RLU signal value from the DMSO control well samples, RLUblank is the average RLU signal value from the medium control well samples, and RLUcompound is the RLU signal value from the compound-treated well samples. […]
# p-ERK = assay: Cell p-ERK assay (HTRF, Advance ERK phospho-T202/Y204 kit) in NCI-H441 cells; format: cell-based; settings: NCI-H441, human non-small cell lung cancer cell strain, KRAS G12V mutation, 3 h compound incubation
# Method: AsPC-1 cells were purchased from ATCC, Cat. No. CRL-1682; NCI-H441 cells were purchased from ATCC, Cat. No. HTB-174; RPMI-1640 medium was purchased from Gibco, Cat. No. 11875-093; FBS was purchased from Gibco, Cat. No. 10099-141C; penicillin/streptomycin double-antibiotic solution (PS) was purchased from Gibco, Cat. No. 15140-122; trypsin (containing EDTA) was purchased from Gibco, Cat. No. 25200-072; DMSO was purchased from VWRAMRESCO, Cat. No. 0231-500ML; 96-well cell culture plates were purchased from Corning, Cat. No. 3599; white-bottomed, opaque 96-well plates were purchased from Cisbio, Cat. No. 66PL96025; Advance ERK phospho-T202/Y204 kit was purchased from Cisbio, Cat. No. 64AERPEH; cell counter was purchased from CHEMOMETEC, model: NC-200; microplate reader was purchased from PerkinElmer, model: EnVision.
# AsPC-1, a human pancreatic cancer cell strain endogenously containing a KRAS^G12D mutation, was cultured in a complete medium containing RPMI-1640 + 10% FBS + 1% PS. NCI-H441, a human non-small cell lung cancer cell strain endogenously containing a KRAS^G12V mutation, was cultured in a complete medium containing RPMI-1640 + 10% FBS + 1% PS.
# The cells were digested with trypsin (containing EDTA), collected in their corresponding complete media, and counted. The density of the cell suspensions was adjusted with their corresponding complete media, and AsPC-1 cells (10000 cells/well) or NCI-H441 cells (20000 cells/well) were seeded into a 96-well cell culture plate, with the volume of the medium in each well being 80 µL. The cell culture plate was incubated in an incubator at 37 °C with 5% CO2 overnight. A series of 3.16-fold gradient dilutions of a 1000× compound stock solution were prepared with DMSO, and then diluted 200-fold with the complete medium described above to give 5× compound stock solutions. On the day after cell seeding, 20 µL of the 5× compound stock solution was added to each cell culture well. As a result, the final concentration of the compound in the cell culture well became 1×, and the DMSO content in the well was 0.1%. In addition to the compound-treated wells described above, cell-containing DMSO control wells were also set. A complete medium containing 0.5% DMSO was added at 20 µL/well. After the mixture was well mixed, the culture plate was incubated in the incubator at 37 °C with 5% CO2 for another 3 h. The medium was then removed from the culture wells, and 50 µL of cell lysis buffer (from Advance ERK phospho-T202/Y204 kit) was added to each well. The mixture was well mixed, incubated for 30 min, and then transferred to a white-bottomed, opaque 96-well assay plate at 16 µL/well, and separately, 16 µL of cell lysis buffer was added to additional wells (serving as blank wells) in the assay plate. After the transfer was completed, 4 µL of p-ERK HTRF antibody mixture (from Advance ERK phospho-T202/Y204 kit) was added to each well of the assay plate, followed by a 4-hour incubation. The HTRF signal values (RLU) were then measured using a microplate reader, and the inhibition rate of the compound against p-ERK levels was calculated as follows: IR(%) = (RLUDMSO - RLUcompound)/(RLUDMSO - RLUblank) × 100%, where RLUDMSO is the average HTRF signal value from the DMSO control well samples, RLU is the average HTRF signal value from the blank well samples, and RLUcompound is the HTRF signal value from the compound-treated well samples. Using an XLfit software, the IR(%) values were plotted against the logarithm of the compound concentrations, and the dose-response curves were fitted using the four-parameter method to calculate the IC50 values.
SMILES,"IC50 (NCI-H441 cells; Homo sapiens, NCI-H441, 120 h)","IC50 (p-ERK; Homo sapiens, NCI-H441, 3 h)",IC50 (NCI-H441 cells; 120 h),IC50 (p-ERK)
"CCn1nc2c(c1-c1cc(C#CCN3CCS(=O)(=O)CC3)cnc1[C@H](C)OC)CC(C)(C)COC(=O)[C@@H]1CCCN(N1)C(=O)[C@@H](NC(=O)[C@@H](OCc1ccccc1)C(C)C)Cc1nc(cs1)/C=C/2 (atropisomer, axis not shown; (Ra)) [Compound Z46, (2S)-2-(benzyloxy)-N-((4^2Z,8^3S,2E,6S)-1^5-(Ra)-(5-(3-(1,1-dioxidothiomorpholino)prop-1-yn-1-yl)-2-((S)-1-methoxyethyl)pyridin-3-yl)-1^1-ethyl-12,12-dimethyl-7,9-dioxo-8^1,8^2,8^3,8^4,8^5,8^6-hexahydro-1^1H-10-oxa-4(4,2)-thiazola-8(1,3)-pyridazina-1(3,4)-pyrrolacyclotridecaphan-2-en-6-yl)-3-methylbutanamide]",176 nM,168 nM,,
"CCn1nc2c(c1-c1cc(C#CCN3CCS(=O)(=O)CC3)cnc1[C@H](C)OC)CC(C)(C)COC(=O)[C@@H]1CCCN(N1)C(=O)[C@@H](NC(=O)[C@@H]1CCCN1Cc1ccccc1)Cc1nc(cs1)/C=C/2 (atropisomer, axis not shown; (Ra)) [Compound Z48, (2S)-1-benzyl-N-((4^2Z,8^3S,2E,6S)-(Ra)-1^5-(5-(3-(1,1-dioxothiomorpholine)-1-prop-1-yn-1-yl)-2-((S)-1-methoxyethyl)pyridin-3-yl)-1^1-ethyl-12,12-dimethyl-7,9-dioxo-8^1,8^2,8^3,8^4,8^5,8^6-hexahydro-1^1H-10-oxa-4(4,2)-thiazola-8(1,3)-pyridazina-1(3,4)-pyrrolacyclotridecaphan-2-en-6-yl)pyrrolidine-2-carboxamide]",,,123 nM,78.6 nM
"CCn1nc2c(c1-c1cc(C#CCN3CCS(=O)(=O)CC3)cnc1[C@H](C)OC)CC(C)(C)COC(=O)[C@@H]1CCCN(N1)C(=O)[C@@H](NC(=O)[C@H](C(C)C)N(C)c1ccccc1)Cc1nc(cs1)/C=C/2 (atropisomer, axis not shown; (Ra)) [Compound Z51, (2S)-N-((4^2Z,8^3S,2E,6S)-(Ra)-1^5-(5-(3-(1,1-dioxidothiomorpholine)prop-1-yn-1-yl)-2-((S)-1-methoxyethyl)pyridin-3-yl)-1^1-ethyl-12,12-dimethyl-7,9-dioxo-8^1,8^2,8^3,8^4,8^5,8^6-hexahydro-1^1H-10-oxa-4(4,2)-thiazola-8(1,3)-pyridazina-1(3,4)-pyrazolecyclotridec-2-en-6-yl)-3-methyl-2-(methyl(phenyl)amino)butanamide]",3.46 nM,3.02 nM,,
"CCn1nc2c(c1-c1cc(C#CCN3CCS(=O)(=O)CC3)cnc1[C@H](C)OC)CC(C)(C)COC(=O)[C@@H]1CCCN(N1)C(=O)[C@@H](NC(=O)[C@@H](NC(=O)OC(C)(C)C)C(C)C)Cc1nc(cs1)/C=C/2 (atropisomer, axis not shown; (Ra)) [Compound Z53]",115 nM,182 nM,,
"CCn1nc2c(c1-c1cc(C#CCN3CCS(=O)(=O)CC3)cnc1[C@H](C)OC)CC(C)(C)COC(=O)[C@@H]1CCCN(N1)C(=O)[C@@H](NC(=O)[C@@H](NC)C(C)C)Cc1nc(cs1)/C=C/2 (atropisomer, axis not shown; (Ra)) [Compound Z56, (2S)-N-((4^2Z,8^3S,2E,6S)-1^5-(Ra)-(5-(3-(1,1-dioxidothiomorpholino)prop-1-yn-1-yl)-2-((S)-1-methoxyethyl)pyridin-3-yl)-1^1-ethyl-12,12-dimethyl-7,9-dioxo-8^1,8^2,8^3,8^4,8^5,8^6-hexahydro-1^1H-10-oxa-4(4,2)-thiazola-8(1,3)-pyridazina-1(3,4)-pyrrolacyclotridecaphan-2-en-6-yl)-3-methyl-2-(methylamino)butanamide]",196 nM,126 nM,,
"CCn1nc2c(c1-c1cc(C#CCN3CCS(=O)(=O)CC3)cnc1[C@H](C)OC)CC(C)(C)COC(=O)[C@@H]1CCCN(N1)C(=O)[C@@H](NC(=O)[C@H](C(C)C)N(C)C(=O)COc1ccccc1)Cc1nc(cs1)/C=C/2 (atropisomer, axis not shown; (Ra)) [Compound Z57, (2S)-N-((4^2Z,8^3S,2E,6S)-(Ra)-1^5-(5-(3-(1,1-dioxidothiomorpholino)prop-1-yn-1-yl)-2-((S)-1-methoxyethyl)pyridin-3-yl)-1^1-ethyl-12,12-dimethyl-7,9-dioxo-8^1,8^2,8^1,8^4,8^1,8^6-hexahydro-1^1H-10-oxa-4(4,2)-thiazola-8(1,3)-pyridazina-1(3,4)-pyrazolocyclotridec-2-en-6-yl)-3-methyl-2-(N-methyl-2-phenoxyacetamido)butanamide]",245 nM,88 nM,,
